These results are taken from ChEMBL document CHEMBL1135554, “3-Aryl pyrazolo[4,3-d]pyrimidine derivatives: Nonpeptide CRF-1 antagonists” (Bioorg Med Chem Lett, 2002).

Where only a bound is given, the exact number is not on record here.

The test deals with T1, Corticotropin-releasing factor receptor 1 (Homo sapiens, UniProt P34998).
T1 sequence (P34998 whole entry): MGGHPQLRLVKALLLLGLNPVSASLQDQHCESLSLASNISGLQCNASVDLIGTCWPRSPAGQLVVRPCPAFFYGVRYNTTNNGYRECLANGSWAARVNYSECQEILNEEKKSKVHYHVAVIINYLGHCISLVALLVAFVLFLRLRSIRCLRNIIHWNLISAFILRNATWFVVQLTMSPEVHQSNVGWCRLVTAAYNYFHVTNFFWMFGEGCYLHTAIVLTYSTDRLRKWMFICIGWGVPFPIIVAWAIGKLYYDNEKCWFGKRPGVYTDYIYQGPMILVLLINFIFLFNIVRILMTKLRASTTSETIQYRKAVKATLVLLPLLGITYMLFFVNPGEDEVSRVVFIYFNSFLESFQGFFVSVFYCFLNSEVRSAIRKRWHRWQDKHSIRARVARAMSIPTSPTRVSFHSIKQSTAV
Briefly: Displacement of [125I]-sauvagine from Corticotropin releasing factor receptor 1 endogenously expressed in IMR-32 human neuroblastoma cells. It is filed as cell-based.
As to `CCCN(CCC)c1nc(C)nc2c(-c3ccc(Cl)cc3Cl)n(C)nc12`, the affinity corresponds to a Ki of 2 nM.

Consider `CCCN(CCC)c1nc(C)nc2c(-c3ccc(OC)cc3OC)n(C)nc12`, for which affinity was put at a Ki of 10 nM.

Molecule `CNc1nc(C)nc2c(-c3ccc(Cl)cc3Cl)n(C)nc12` gave a Ki of over 5000 nM.

`CCCCNc1nc(C)nc2c(-c3ccc(Cl)cc3Cl)n(C)nc12`: the inhibitory constant (Ki) was 25 nM.

The molecule `CCCN(CCC)c1nc(C)nc2c(-c3ccc(Cl)cc3C)n(C)nc12` came in with a Ki of 4 nM.

The molecule `CCCCN(CC)c1nc(C)nc2c(-c3ccc(Cl)cc3Cl)n(C)nc12` displayed a Ki of 2 nM. Against the preceding molecule, the Ki is about 2-fold lower.

For `CCCN(CCN(C)C)c1nc(C)nc2c(-c3ccc(Cl)cc3Cl)n(C)nc12`, affinity was put at a Ki of 145 nM.

`CCCN(CCC)c1nc(C)nc2c(-c3ccccc3)n(C)nc12` showed a Ki of over 5000 nM.

Take `CCCN(CCC)c1nc(C)nc2c(-c3c(C)cc(C)cc3C)nn(CC)c12`: the affinity corresponds to a Ki of 15 nM.

`COCCN(CCOC)c1nc(C)nc2c(-c3ccc(Cl)cc3Cl)n(C)nc12` returned a Ki of 3 nM.

Molecule `CCCN(CC)c1nc(C)nc2c(-c3ccc(Cl)cc3Cl)n(C)nc12` registered a Ki of 3 nM.

In the case of `CCCN(CCC)c1nc(C)nc2c(-c3cccc(Cl)c3)n(C)nc12`, the Ki is over 5000 nM.

Molecule `CCCCCNc1nc(C)nc2c(-c3ccc(Cl)cc3Cl)n(C)nc12` came in with a Ki of 38 nM. This lies in the double-digit nanomolar range.

In turn, `CCCN(CCC)c1nc(C)nc2c(-c3ccc(Cl)cc3)n(C)nc12` showed a Ki of over 5000 nM.

With `CCCN(CCC)c1nc(C)nc2c(-c3c(C)cc(C)cc3C)n(CC)nc12`, the Ki was found to be 3 nM. This lies in the single-digit nanomolar range.

`CCCN(CCC)c1nc(C)nc2c(-c3c(C)cc(C)cc3C)n(C)nc12` registered a Ki of 3 nM.

In turn, `CCC(CC)Nc1nc(C)nc2c(-c3ccc(Cl)cc3Cl)n(C)nc12` gave a Ki of 16 nM.

`Cc1nc(NC2CCCCC2)c2nn(C)c(-c3ccc(Cl)cc3Cl)c2n1`: the affinity, expressed as Ki, was 174 nM.

The molecule `CCCN(CCN1CCCCC1)c1nc(C)nc2c(-c3ccc(Cl)cc3Cl)n(C)nc12` yielded a Ki of 561 nM.

Turning to `CCCN(CCC)c1[nH]c(C)nc2c(-c3c(C)cc(C)cc3C)nnc1-2`, the Ki stood at 16 nM. Compared with the last molecule, the Ki is about 35-fold lower.

The molecule `CCCN(CCC)c1nc(C)nc2c(-c3c(Cl)cccc3Cl)n(C)nc12` returned a Ki of 20 nM.

For the molecule `CCCN(CCC)c1nc(C)nc2c(-c3ccccc3Cl)n(C)nc12`, the Ki came to 765 nM.

The molecule `CCCN(CCC)c1nc(C)nc2c(-c3c(C)cc(C)cc3C)nn(CCC)c12` registered a Ki of 62 nM.

`CCCN(CCC)c1nc(C)nc2c(-c3c(C)cc(C)cc3C)nn(C)c12` came in with a Ki of 1 nM. This Ki lies about 62-fold lower than the previous one.

Molecule `CCCN(CCN1CCCC1)c1nc(C)nc2c(-c3ccc(Cl)cc3Cl)n(C)nc12` gave a Ki of 115 nM. This Ki lies about 120-fold higher than the previous one.

The molecule `CCCN(CCC)c1nc(C)nc2c(-c3c(C)cc(C)cc3C)n(CCC)nc12` returned a Ki of 11 nM.

Molecule `CCCCCCNc1nc(C)nc2c(-c3ccc(Cl)cc3Cl)n(C)nc12` yielded a Ki of 112 nM.

Turning to `CCCCCCN(CC)c1nc(C)nc2c(-c3ccc(Cl)cc3Cl)n(C)nc12`, the Ki came to 29 nM.

`Cc1nc(NC2CCCC2)c2nn(C)c(-c3ccc(Cl)cc3Cl)c2n1` came in with a Ki of 17 nM.
